Values quoted from earlier work, collected in patent publication US20250367137A1, “Phloroglucinol Formulations And Methods Of Use” (priority 2022, published 2025).

Test system: irritable bowel syndrome (IBS) sufferers
Conditions: placebo-controlled trials

## Oc1cc(O)cc(O)c1 [phloroglucinol]
  improvement in pain and stool frequency: statistically significant improvement
